Laboratory results as given in patent publication US20240217989A1, “Heteroaryl Fluoroalkenes As DGK Inhibitors” (Incyte Corporation, priority 2022, published 2024).

Assays:
DGKα = biological target: T1, DGKα (Homo sapiens, UniProt P23743); test: In vitro DGKα inhibition assay (ADP-Glo); assay type: biochemical; settings: His-tagged human recombinant enzyme; 0.1 nM DGKα, 50 μM ATP, 20 μM DLG; 90 minute incubation; ADP-Glo luminescence
T1 construct: His; purchased Signal Chem D21-10BH
How it was run: (§1)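 His-tagged human recombinant enzymes with DLG lipid substrate (20 μM) in Tris pH 7.5 buffer with MgCl2/CaCl2; DGKα 0.1 nM with 50 μM ATP, DGKζ 0.4 nM with 30 μM ATP.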

DGKζ = DGKζ (Homo sapiens, UniProt Q13574); test: In vitro DGKζ inhibition assay (ADP-Glo); assay type: biochemical; settings: His-tagged human recombinant enzyme; 0.4 nM DGKζ, 30 μM ATP, 20 μM DLG; 90 minute incubation; ADP-Glo luminescence
How it was run: as §1

T1 sequence (P23743 whole entry): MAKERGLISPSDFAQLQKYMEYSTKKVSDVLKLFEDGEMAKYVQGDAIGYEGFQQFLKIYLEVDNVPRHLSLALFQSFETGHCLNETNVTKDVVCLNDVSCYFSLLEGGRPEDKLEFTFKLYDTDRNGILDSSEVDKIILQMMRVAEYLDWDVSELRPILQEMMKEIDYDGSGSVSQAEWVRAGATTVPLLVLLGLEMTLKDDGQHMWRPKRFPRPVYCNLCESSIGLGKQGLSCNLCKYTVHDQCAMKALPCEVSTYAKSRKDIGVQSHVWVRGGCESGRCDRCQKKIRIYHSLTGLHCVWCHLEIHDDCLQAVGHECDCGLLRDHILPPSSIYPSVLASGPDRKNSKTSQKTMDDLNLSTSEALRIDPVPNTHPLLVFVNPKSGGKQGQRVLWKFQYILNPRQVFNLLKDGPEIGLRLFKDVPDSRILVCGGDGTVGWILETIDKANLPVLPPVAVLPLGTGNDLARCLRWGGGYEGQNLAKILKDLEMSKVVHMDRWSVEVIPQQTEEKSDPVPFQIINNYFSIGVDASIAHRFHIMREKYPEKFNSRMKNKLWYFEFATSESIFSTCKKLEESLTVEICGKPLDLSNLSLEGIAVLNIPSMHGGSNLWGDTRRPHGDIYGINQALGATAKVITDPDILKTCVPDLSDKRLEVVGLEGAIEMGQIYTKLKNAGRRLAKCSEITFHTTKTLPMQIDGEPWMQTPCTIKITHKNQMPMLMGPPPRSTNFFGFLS
Chain of DGKζ (Q13574 whole entry): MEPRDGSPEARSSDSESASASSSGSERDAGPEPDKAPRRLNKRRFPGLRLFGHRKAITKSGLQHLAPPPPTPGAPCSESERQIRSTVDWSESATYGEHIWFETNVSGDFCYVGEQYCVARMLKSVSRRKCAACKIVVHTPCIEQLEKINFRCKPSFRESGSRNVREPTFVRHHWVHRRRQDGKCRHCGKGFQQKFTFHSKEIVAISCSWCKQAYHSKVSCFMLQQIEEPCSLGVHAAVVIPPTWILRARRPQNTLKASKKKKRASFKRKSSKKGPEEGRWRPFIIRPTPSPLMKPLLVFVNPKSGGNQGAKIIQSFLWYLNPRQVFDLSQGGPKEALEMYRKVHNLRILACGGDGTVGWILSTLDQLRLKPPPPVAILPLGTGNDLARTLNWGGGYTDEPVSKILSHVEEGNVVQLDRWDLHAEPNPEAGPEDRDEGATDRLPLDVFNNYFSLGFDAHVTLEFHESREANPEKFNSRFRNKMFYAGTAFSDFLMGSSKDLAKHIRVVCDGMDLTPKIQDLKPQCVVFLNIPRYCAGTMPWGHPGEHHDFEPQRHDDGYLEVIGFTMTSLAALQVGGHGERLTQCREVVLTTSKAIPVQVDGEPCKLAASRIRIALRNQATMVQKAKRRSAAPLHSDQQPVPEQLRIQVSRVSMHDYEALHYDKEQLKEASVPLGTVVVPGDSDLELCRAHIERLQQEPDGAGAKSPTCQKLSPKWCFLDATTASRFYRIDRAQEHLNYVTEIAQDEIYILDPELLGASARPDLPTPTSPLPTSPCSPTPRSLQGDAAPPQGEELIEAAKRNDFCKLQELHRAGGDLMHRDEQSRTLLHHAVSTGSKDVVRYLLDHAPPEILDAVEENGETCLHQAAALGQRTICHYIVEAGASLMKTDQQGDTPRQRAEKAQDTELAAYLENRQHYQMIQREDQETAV

For `F/C(=C\c1ccc(OC2CCCC2)c(C(F)(F)F)c1N1CCCC2(CCN(CC3CC3)CC2)C1)c1nccc(-c2ccnnc2)n1` [Example 51, (Z)-2-(3-(Cyclopentyloxy)-6-(2-fluoro-2-(4-(pyridazin-4-yl)pyrimidin-2-yl)vinyl)-2-(trifluoromethyl)phenyl)-9-(cyclopropylmethyl)-2,9-diazaspiro[5.5]undecane], the IC50 (DGKα) was ≤ 20 nM and the IC50 (DGKζ) was ≤ 20 nM.
For `F/C(=C\c1ccc(OC2CCC2)c(C(F)(F)F)c1N1CCCC2(CCN(CC3CC3)CC2)C1)c1nccc(-c2ccnnc2)n1` [Example 52, (Z)-2-(3-Cyclobutoxy-6-(2-fluoro-2-(4-(pyridazin-4-yl)pyrimidin-2-yl)vinyl)-2-(trifluoromethyl)phenyl)-9-(cyclopropylmethyl)-2,9-diazaspiro[5.5]undecane], the IC50 (DGKα) was ≤ 20 nM and the IC50 (DGKζ) was ≤ 20 nM.
In the case of `CCN1CCC2(CCCN(c3c(/C=C(\F)c4nccc(-c5ccnnc5)n4)ccc(OC4CCCC4)c3C(F)(F)F)C2)CC1` [Example 53, (Z)-2-(3-(Cyclopentyloxy)-6-(2-fluoro-2-(4-(pyridazin-4-yl)pyrimidin-2-yl)vinyl)-2-(trifluoromethyl)phenyl)-9-ethyl-2,9-diazaspiro[5.5]undecane], the IC50 (DGKα) is reported as ≤ 20 nM and the IC50 (DGKζ) is reported as ≤ 20 nM.
`CCN1CCC2(CCCN(c3c(/C=C(\F)c4nccc(-c5ccnnc5)n4)ccc(OC4CC5CC(C5)C4)c3C(F)(F)F)C2)CC1` (stereo not drawn) [Example 54, (Z)-2-(3-(Bicyclo[3.1.1]heptan-3-yloxy)-6-(2-fluoro-2-(4-(pyridazin-4-yl)pyrimidin-2-yl)vinyl)-2-(trifluoromethyl)phenyl)-9-ethyl-2,9-diazaspiro[5.5]undecane] was tested, and the IC50 (DGKα) was ≤ 20 nM and the IC50 (DGKζ) was ≤ 20 nM.
For `F/C(=C\c1ccc(Oc2ccccc2F)c(C(F)(F)F)c1N1CCCC2(CCN(CC3CC3)CC2)C1)c1nccc(-c2cnsc2)n1` [Example 55, (Z)-4-(2-(2-(2-(9-(Cyclopropylmethyl)-2,9-diazaspiro[5.5]undecan-2-yl)-4-(2-fluorophenoxy)-3-(trifluoromethyl)phenyl)-1-fluorovinyl)pyrimidin-4-yl)isothiazole], the IC50 (DGKα) was ≤ 20 nM and the IC50 (DGKζ) was ≤ 20 nM.
With `F/C(=C\c1ccc(Oc2ccccc2F)c(C(F)(F)F)c1N1CCCC2(CCN(CC3CC3)CC2)C1)c1cncc(-c2cnsc2)n1` [Example 56, (Z)-4-(6-(2-(2-(9-(Cyclopropylmethyl)-2,9-diazaspiro[5.5]undecan-2-yl)-4-(2-fluorophenoxy)-3-(trifluoromethyl)phenyl)-1-fluorovinyl)pyrazin-2-yl)isothiazole] the IC50 (DGKα) was ≤ 20 nM and the IC50 (DGKζ) was ≤ 20 nM.
`F/C(=C\c1ccc(Oc2ccccc2F)c(C(F)(F)F)c1N1CCCC2(CCN(CC3CC3)CC2)C1)c1cncc(N2CC(F)(F)C2)n1` [Example 57, (Z)-9-(Cyclopropylmethyl)-2-(6-(2-(6-(3,3-difluoroazetidin-1-yl)pyrazin-2-yl)-2-fluorovinyl)-3-(2-fluorophenoxy)-2-(trifluoromethyl)phenyl)-2,9-diazaspiro[5.5]undecane] was tested, and the IC50 (DGKα) was ≤ 20 nM and the IC50 (DGKζ) was ≤ 20 nM.
For `CCN1CCC2(CCCN(c3c(/C=C(\F)c4cncc(N5CCC(F)(F)C5)n4)ccc(Oc4ccccc4F)c3C(F)(F)F)C2)CC1` [Example 58, (Z)-2-(6-(2-(6-(3,3-Difluoropyrrolidin-1-yl)pyrazin-2-yl)-2-fluorovinyl)-3-(2-fluorophenoxy)-2-(trifluoromethyl)phenyl)-9-ethyl-2,9-diazaspiro[5.5]undecane], the IC50 (DGKα) was ≤ 20 nM and the IC50 (DGKζ) was ≤ 20 nM.
`F/C(=C\c1ccc(Oc2ccccc2F)c(C(F)(F)F)c1N1CCCC2(CCN(CC3CC3)CC2)C1)c1cncc(N2CCC(F)(F)C2)n1` [Example 59, (Z)-9-(Cyclopropylmethyl)-2-(6-(2-(6-(3,3-difluoropyrrolidin-1-yl)pyrazin-2-yl)-2-fluorovinyl)-3-(2-fluorophenoxy)-2-(trifluoromethyl)phenyl)-2,9-diazaspiro[5.5]undecane] was tested, and the IC50 (DGKα) was ≤ 20 nM and the IC50 (DGKζ) was ≤ 20 nM.
